In the first experiment the target is T1, human SGLT2 (Homo sapiens, UniProt P31639).
T1 construct: expressed in transfected cells; host or cells: CHOK1 (CHO-K1) cells, kept under Geneticin selection
T1 sequence (P31639 1-672): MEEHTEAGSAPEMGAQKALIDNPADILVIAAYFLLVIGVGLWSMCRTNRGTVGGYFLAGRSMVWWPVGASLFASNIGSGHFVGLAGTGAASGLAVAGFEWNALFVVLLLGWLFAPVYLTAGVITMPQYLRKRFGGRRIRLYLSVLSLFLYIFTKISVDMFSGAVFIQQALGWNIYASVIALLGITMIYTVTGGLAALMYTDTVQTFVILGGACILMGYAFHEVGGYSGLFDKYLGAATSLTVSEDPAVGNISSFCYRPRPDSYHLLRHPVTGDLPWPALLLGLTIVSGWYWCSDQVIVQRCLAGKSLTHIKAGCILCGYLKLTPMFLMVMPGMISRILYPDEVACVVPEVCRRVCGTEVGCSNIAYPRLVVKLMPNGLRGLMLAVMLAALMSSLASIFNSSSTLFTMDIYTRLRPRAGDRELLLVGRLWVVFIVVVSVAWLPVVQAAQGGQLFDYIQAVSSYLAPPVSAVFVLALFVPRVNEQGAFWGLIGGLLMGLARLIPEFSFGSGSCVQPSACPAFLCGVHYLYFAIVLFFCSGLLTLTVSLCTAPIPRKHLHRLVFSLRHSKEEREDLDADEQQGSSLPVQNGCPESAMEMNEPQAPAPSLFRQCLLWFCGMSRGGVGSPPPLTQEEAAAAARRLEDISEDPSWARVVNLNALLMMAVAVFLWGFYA
Kind of experiment: Assay for SGLT2 inhibition (14C-AMG uptake in CHOK1 cells expressing human SGLT2). It counts as cell-based. As to conditions: CHOK1 cells expressing human SGLT2; 14C-AMG uptake 0.5 mM, 2 hours at 37° C.; read-out: IC50. As to the method:
1. Assay for SGLT2 Inhibition
Compounds described in the above examples were used for the SGLT2 inhibition assay.
CHOK1 cells expressing human SGLT2 were seeded in 24-well plates at a density of 400,000 cells/well in F-12 nutrient mixture (Ham's F-12) containing 10% fetal bovine serum, 400 μg/ml Geneticin, 50 units/ml sodium penicillin G (Gibco-BRL) and 50 μg/ml streptomycin sulfate. […] Test compounds were dissolved in DMSO. The final concentration of DMSO was 0.5%. The transport reaction was initiated by addition of 50 μl [^14C]-methyl-α-D-glucopyranoside (^14C-AMG) solution (final concentration, 0.5 mM). After incubation for 2 hours at 37° C., the uptake was stopped by aspiration of the incubation mixture, the cells were washed three times with ice-cold PBS. Then, cells were solubilized with 0.3 N NaOH and aliquots were taken for determination of radioactivity by a liquid scintillation counter. Nonspecific AMG uptake was defined as that which occurred in the presence of 100 μM of phlorizin, a specific inhibitor of sodium-dependent glucose cotransporter. Specific uptake was normalized for the protein concentrations measured by the method of Bradford.
Turning to `Cc1ccc([C@@H]2O[C@H](CO)[C@@H](O)[C@H](O)[C@H]2O)cc1Cc1ccc(-c2ccc(F)nc2)s1` [Example 120, 1-(β-D-glucopyranosyl)-3-(5-(6-fluoro-3-pyridyl)-2-thienylmethyl)-4-methylbenzene], the IC50 (usually the midpoint of a concentration-inhibition curve) was found to be 3.4 nM.

Take `N#Cc1cccc(-c2ccc(Cc3cc([C@@H]4O[C@H](CO)[C@@H](O)[C@H](O)[C@H]4O)ccc3Cl)s2)c1` [Example 123, 1-(β-D-glucopyranosyl)-4-chloro-3-(5-(3-cyanophenyl)-2-thienylmethyl)benzene]: the IC50 came out at 1.4 nM. `Cc1ccc([C@@H]2O[C@H](CO)[C@@H](O)[C@H](O)[C@H]2O)cc1Cc1ccc(-c2cccc(C#N)c2)s1` [Example 127, 1-(β-D-glucopyranosyl)-3-(5-(3-cyanophenyl)-2-thienylmethyl)-4-methylbenzene]: the IC50 worked out at 1.3 nM. Same read-out and setting: next, `CCc1cccc(-c2ccc(Cc3cc([C@@H]4O[C@H](CO)[C@@H](O)[C@H](O)[C@H]4O)ccc3C)s2)c1` [Example 140]: 5.9 nM.

Turning to `COc1ccc(-c2ccc(Cc3cc([C@@H]4O[C@H](CO)[C@@H](O)[C@H](O)[C@H]4O)ccc3C)s2)cc1` [Example 144], the 50% inhibitory concentration (IC50) was found to be 4.1 nM. With `Cc1ccc([C@@H]2O[C@H](CO)[C@@H](O)[C@H](O)[C@H]2O)cc1Cc1ccc(-c2cccc(F)n2)s1` [Example 146], the IC50 turned out to be 2.2 nM. Take `Cc1ccc([C@@H]2O[C@H](CO)[C@@H](O)[C@H](O)[C@H]2O)cc1Cc1ccc(-c2ccnc(F)c2)s1` [Example 217]: the IC50 was found to be 3.6 nM. Regarding `Cc1ccc([C@@H]2O[C@H](CO)[C@@H](O)[C@H](O)[C@H]2O)cc1Cc1ccc(-c2ccc(C#N)c(F)c2)s1` [Example 219], the 50% inhibitory concentration (IC50) is 6.7 nM.

With `Cc1ccc([C@@H]2O[C@H](CO)[C@@H](O)[C@H](O)[C@H]2O)cc1Cc1ccc(-c2cccc(OC(F)F)c2)s1` [Example 222], the IC50 is 1.8 nM.

With `Cc1ccc([C@@H]2O[C@H](CO)[C@@H](O)[C@H](O)[C@H]2O)cc1Cc1cc2ccc(OC(F)F)cc2s1` [Example 224], the half-maximal inhibitory concentration (IC50) worked out at 5.9 nM. The same measure, in the same setting: next, `Cc1ccc([C@@H]2O[C@H](CO)[C@@H](O)[C@H](O)[C@H]2O)cc1Cc1ccc(-c2cccc(C#N)n2)s1` [Example 225]: 1.5 nM; `Cc1ccc([C@@H]2O[C@H](CO)[C@@H](O)[C@H](O)[C@H]2O)cc1Cc1ccc(-n2cccn2)s1` [Example 227]: 3.2 nM. The same measure, in the same setting: the same measure for `CCOc1ccc2cc(Cc3cc([C@@H]4O[C@H](CO)[C@@H](O)[C@H](O)[C@H]4O)ccc3C)sc2c1` [Example 228]: 3.6 nM; for `COc1ccc2sc(Cc3cc([C@@H]4O[C@H](CO)[C@@H](O)[C@H](O)[C@H]4O)ccc3C)cc2c1` [Example 229]: 2.7 nM. `Cc1ccc([C@@H]2O[C@H](CO)[C@@H](O)[C@H](O)[C@H]2O)cc1Cc1cc2cc(OCCF)ccc2s1` [Example 230]: the concentration for half-maximal inhibition (IC50) is 4 nM. The same measure, in the same setting: the same measure for `CCOc1ccc2sc(Cc3cc([C@@H]4O[C@H](CO)[C@@H](O)[C@H](O)[C@H]4O)ccc3C)cc2c1` [Example 231]: 3.5 nM; for `CCOc1ccc(-c2ccc(Cc3cc([C@@H]4O[C@H](CO)[C@@H](O)[C@H](O)[C@H]4O)ccc3C)s2)cc1` [Example 232]: 4 nM. On the same count and under the same terms, next, `Cc1ccc([C@@H]2O[C@H](CO)[C@@H](O)[C@H](O)[C@H]2O)cc1Cc1cc2ccc(OCCF)cc2s1` [Example 235]: 2.6 nM; `Cc1ccc([C@@H]2O[C@H](CO)[C@@H](O)[C@H](O)[C@H]2O)cc1Cc1ccc(-c2ccc(OC(F)F)cc2)s1` [Example 237]: 2.8 nM. For `COc1ccc2cc(Cc3cc([C@@H]4O[C@H](CO)[C@@H](O)[C@H](O)[C@H]4O)ccc3C)sc2c1` [Example 238], the IC50 was 1.6 nM. The same measure, in the same setting: the same measure for `OC[C@H]1O[C@@H](c2ccc(Cl)c(Cc3ccc(-c4ncco4)s3)c2)[C@H](O)[C@@H](O)[C@@H]1O` [Example 240]: 1.2 nM; for `Cc1ccc([C@@H]2O[C@H](CO)[C@@H](O)[C@H](O)[C@H]2O)cc1Cc1ccc(-c2ncco2)s1` [Example 241]: 1 nM. Regarding `Cc1csc(-c2ccc(Cc3cc([C@@H]4O[C@H](CO)[C@@H](O)[C@H](O)[C@H]4O)ccc3Cl)s2)n1` [Example 244], the IC50 came out at 1.2 nM. Same read-out and setting: next, `Cc1cc(-c2ccc(Cc3cc([C@@H]4O[C@H](CO)[C@@H](O)[C@H](O)[C@H]4O)ccc3C)s2)on1` [Example 246]: 6.4 nM. On the same count and under the same terms, next, `OC[C@H]1O[C@@H](c2ccc(F)c(Cc3ccc(-c4cccc(F)n4)s3)c2)[C@H](O)[C@@H](O)[C@@H]1O` [Example 248]: 5.1 nM. As for `O=Cc1ccc(-c2ccc(Cc3cc([C@@H]4O[C@H](CO)[C@@H](O)[C@H](O)[C@H]4O)ccc3Cl)s2)cc1` [Example 249, 1-(β-D-Glucopyranosyl)-4-chloro-3-(5-(4-formylphenyl)-2-thienylmethyl)benzene], the IC50 stood at 4.3 nM.

`COc1c(Cc2ccc(Cl)s2)cc([C@@H]2O[C@H](CO)[C@@H](O)[C@H](O)[C@H]2O)c2ccccc12` [Example 250, 1-(β-D-Glucopyranosyl)-3-(5-chloro-2-thienylmethyl)-4-methoxynaphthalene]: the IC50 amounted to 4.2 nM. On the same count and under the same terms, the same measure for `Cc1nc(-c2ccc(Cc3cc([C@@H]4O[C@H](CO)[C@@H](O)[C@H](O)[C@H]4O)ccc3Cl)s2)cs1` [Example 252]: 1.4 nM; for `Cc1cc(-c2ccc(Cc3cc([C@@H]4O[C@H](CO)[C@@H](O)[C@H](O)[C@H]4O)ccc3Cl)s2)ccn1` [Example 253]: 1.6 nM. On the same count and under the same terms, next, `OC[C@H]1O[C@@H](c2cc(Cc3ccc(-c4cccc(F)n4)s3)c(F)c3ccccc23)[C@H](O)[C@@H](O)[C@@H]1O` [Example 255]: 6.5 nM; `OC[C@H]1O[C@@H](c2ccc(Cl)c(Cc3ccc(-c4ncc(F)s4)s3)c2)[C@H](O)[C@@H](O)[C@@H]1O` [Example 256]: 3.1 nM; `OCc1ccc(-c2ccc(Cc3cc([C@@H]4O[C@H](CO)[C@@H](O)[C@H](O)[C@H]4O)ccc3Cl)s2)cc1` [Example 264, 1-(β-D-glucopyranosyl)-4-chloro-3-(5-(4-hydroxymethylphenyl)-2-thienylmethyl)benzene]: 1.5 nM. On the same count and under the same terms, the same measure for `COc1c(Cc2ccc(-c3ccccc3)s2)cc([C@@H]2O[C@H](CO)[C@@H](O)[C@H](O)[C@H]2O)c2ccccc12` [Example 265, 1-(β-D-glucopyranosyl)-3-(5-phenyl-2-thienylmethyl)-4-methoxynaphthalene]: 3.4 nM; for `COc1c(Cc2ccc(-c3ncccn3)s2)cc([C@@H]2O[C@H](CO)[C@@H](O)[C@H](O)[C@H]2O)c2ccccc12` [Example 266]: 3.2 nM; for `COc1c(Cc2ccc(-c3cccc(C#N)c3)s2)cc([C@@H]2O[C@H](CO)[C@@H](O)[C@H](O)[C@H]2O)c2ccccc12` [Example 267]: 1.5 nM.

Take `COc1c(Cc2ccc(-c3cccc(F)n3)s2)cc([C@@H]2O[C@H](CO)[C@@H](O)[C@H](O)[C@H]2O)c2ccccc12` [Example 268]: the IC50 came to 2.5 nM.

A further experiment concerns Sprague-Dawley (SD) rats. The experiment is described as follows: Urinary glucose excretion test in rats. It counts as in vivo, rat. As to conditions: male SD rats, 30 mg/kg oral gavage, urine collected for 24 hours; daily amount of glucose excreted per individual. The protocol: 2. Urinary Glucose Excretion Test in Rats Test Compounds:
Compounds described in the above examples were used for the urinary glucose excretion test in rats.
6-week-old male Sprague-Dawley (SD) rats were housed in individual metabolic cages with free access to food and water from 2 days prior to the experiment. On the morning of the experiment, rats were administered vehicle (0.2% carboxymethyl cellulose solution containing 0.2% Tween80) or test compounds (30 mg/kg) by oral gavage at a volume of 10 ml/kg. Then, urine of the rat was collected for 24 hours, and the urine volume was measured. Subsequently, the glucose concentration in urine was quantified using the enzymatic assay kit and the daily amount of glucose excreted in urine per individual was calculated.
With `Cc1ccc([C@@H]2O[C@H](CO)[C@@H](O)[C@H](O)[C@H]2O)cc1Cc1ccc(-c2ccc(F)nc2)s1` [Example 120, 1-(β-D-glucopyranosyl)-3-(5-(6-fluoro-3-pyridyl)-2-thienylmethyl)-4-methylbenzene], the Urinary glucose entry is given as “A (A≧2000 mg)”. Still for that read-out and setting: next, `N#Cc1cccc(-c2ccc(Cc3cc([C@@H]4O[C@H](CO)[C@@H](O)[C@H](O)[C@H]4O)ccc3Cl)s2)c1` [Example 123, 1-(β-D-glucopyranosyl)-4-chloro-3-(5-(3-cyanophenyl)-2-thienylmethyl)benzene]: “A (A≧2000 mg)”; `Cc1ccc([C@@H]2O[C@H](CO)[C@@H](O)[C@H](O)[C@H]2O)cc1Cc1ccc(-c2cccc(C#N)c2)s1` [Example 127, 1-(β-D-glucopyranosyl)-3-(5-(3-cyanophenyl)-2-thienylmethyl)-4-methylbenzene]: “A (A≧2000 mg)”; `CCc1cccc(-c2ccc(Cc3cc([C@@H]4O[C@H](CO)[C@@H](O)[C@H](O)[C@H]4O)ccc3C)s2)c1` [Example 140]: “B (2000 mg>B≧1000 mg)”.

For the compound `COc1ccc(-c2ccc(Cc3cc([C@@H]4O[C@H](CO)[C@@H](O)[C@H](O)[C@H]4O)ccc3C)s2)cc1` [Example 144], the Urinary glucose result is listed as “B (2000 mg>B≧1000 mg)”. Still for that read-out and setting: the same measure for `Cc1ccc([C@@H]2O[C@H](CO)[C@@H](O)[C@H](O)[C@H]2O)cc1Cc1ccc(-c2cccc(F)n2)s1` [Example 146]: “A (A≧2000 mg)”. Same read-out and setting: next, `OC[C@H]1O[C@@H](n2cc(Cc3cc4ccccc4s3)c3ccccc32)[C@H](O)[C@@H](O)[C@@H]1O` [Example 195, 1-(β-D-glucopyranosyl)-3-(benzo[b]thiophen-2-ylmethyl)indole]: “B (2000 mg>B≧1000 mg)”.

Values taken from patent publication US8222219B2, “Glucopyranoside compound” (Mitsubishi Tanabe Pharma Corporation, priority 2003, dated 2012).
